Laboratory results: the Kinase Knowledgebase extract (Sharma et al. 2016)
“And” between values parts separate entries of the source, which are not always exact repeats. Identical values can stand only once.

What was measured:
[1] = molecular target: MAPK14 (UniProt Q16539); test: p38 alpha Kinase Inhibition Assay; details: for inhibition: concentration not given here
[2] = molecular target: EGFR (UniProt P00533)
EGFR, sequence (P00533 whole entry, looked up): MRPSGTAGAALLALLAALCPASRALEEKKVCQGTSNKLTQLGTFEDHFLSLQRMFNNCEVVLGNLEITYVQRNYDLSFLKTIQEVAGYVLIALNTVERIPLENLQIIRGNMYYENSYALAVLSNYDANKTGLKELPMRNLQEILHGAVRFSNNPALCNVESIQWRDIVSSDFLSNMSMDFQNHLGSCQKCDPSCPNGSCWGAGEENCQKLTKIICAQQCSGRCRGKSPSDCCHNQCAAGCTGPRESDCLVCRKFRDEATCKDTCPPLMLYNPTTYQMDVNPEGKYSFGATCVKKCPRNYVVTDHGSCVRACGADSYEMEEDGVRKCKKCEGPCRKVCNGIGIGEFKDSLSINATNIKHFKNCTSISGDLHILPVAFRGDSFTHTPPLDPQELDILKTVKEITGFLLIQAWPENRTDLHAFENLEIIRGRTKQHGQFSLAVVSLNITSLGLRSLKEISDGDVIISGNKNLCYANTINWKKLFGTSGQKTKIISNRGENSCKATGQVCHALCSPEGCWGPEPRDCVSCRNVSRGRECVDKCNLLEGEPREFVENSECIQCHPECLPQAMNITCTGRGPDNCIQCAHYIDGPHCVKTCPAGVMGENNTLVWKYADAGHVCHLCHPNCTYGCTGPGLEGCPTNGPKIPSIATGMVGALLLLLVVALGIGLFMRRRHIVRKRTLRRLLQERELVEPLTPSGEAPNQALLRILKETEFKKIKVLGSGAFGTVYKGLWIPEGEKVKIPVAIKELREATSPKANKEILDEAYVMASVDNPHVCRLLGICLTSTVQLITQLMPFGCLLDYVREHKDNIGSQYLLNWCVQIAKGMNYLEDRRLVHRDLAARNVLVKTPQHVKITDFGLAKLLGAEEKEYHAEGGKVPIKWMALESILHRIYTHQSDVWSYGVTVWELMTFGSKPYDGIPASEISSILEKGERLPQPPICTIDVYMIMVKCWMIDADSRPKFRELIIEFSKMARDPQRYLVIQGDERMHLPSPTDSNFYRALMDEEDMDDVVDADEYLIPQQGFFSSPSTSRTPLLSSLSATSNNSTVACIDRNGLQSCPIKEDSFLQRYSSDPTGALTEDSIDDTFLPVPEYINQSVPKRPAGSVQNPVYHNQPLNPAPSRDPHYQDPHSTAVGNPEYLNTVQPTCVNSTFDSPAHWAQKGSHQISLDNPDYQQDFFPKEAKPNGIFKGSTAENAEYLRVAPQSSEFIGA

MAPK14, sequence (Q16539 whole entry, looked up): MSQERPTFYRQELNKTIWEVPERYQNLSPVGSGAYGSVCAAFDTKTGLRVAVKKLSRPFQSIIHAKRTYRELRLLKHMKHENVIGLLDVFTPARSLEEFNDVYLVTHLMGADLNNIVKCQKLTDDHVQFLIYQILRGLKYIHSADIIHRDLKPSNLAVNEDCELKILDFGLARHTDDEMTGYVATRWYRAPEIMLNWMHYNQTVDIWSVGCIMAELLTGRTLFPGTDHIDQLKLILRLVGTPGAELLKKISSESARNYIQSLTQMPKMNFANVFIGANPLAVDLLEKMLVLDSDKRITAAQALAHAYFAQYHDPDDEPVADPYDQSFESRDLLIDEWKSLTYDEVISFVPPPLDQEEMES

Row | Compound | IC50 [1] | IC50 [2] | inhibition [1]
1 | O=C(c1ccc2cc[nH]c2c1)N1CCN(Cc2ccccc2)CC1 | 4970 to 5520 nM | – | –
2 | O=C(c1ccc2cc[nH]c2c1)N1CCC(Cc2ccccc2)CC1 | – | > 500000 nM | –
3 | O=C(c1ccc2[nH]ccc2c1)N1CCC(Cc2ccccc2)CC1 | 150 to 242 nM and 523 to 577 nM | > 500000 nM | –
4 | CCNCCCn1ccc2cc(C(=O)N3CCC(Cc4ccccc4)CC3)c(Cl)cc21 | 199 nM | – | –
5 | COc1cc2[nH]ccc2cc1C(=O)N1C2CCC1CC(Cc1ccccc1)C2 (configuration not stated) | – | – | 63%
6 | O=C(c1ccc2c(ccn2C(=O)c2ccncc2)c1)N1CCC(Cc2ccccc2)CC1 | 405 to 871 nM | – | –
7 | O=C(c1ccc2ccn(C(=O)c3ccncc3)c2c1)N1CCC(Cc2ccccc2)CC1 | 505 nM | – | –
8 | O=C(c1ccc2nc[nH]c2c1)N1C2CCC1CC(Cc1ccccc1)C2 (configuration not stated) | 2150 nM | – | –
9 | CCNCCCn1ccc2cc(C(=O)N3CCC(Cc4ccc(F)cc4)CC3)ccc21 | 354 nM | – | –
10 | O=C(c1ccc2c(ccn2-c2ccncc2)c1)N1CCC(Cc2ccccc2)CC1 | 800 nM | – | –
11 | O=C(c1ccc2cc[nH]c2c1)N1CCC(Cc2ccc(F)cc2)C1 (configuration not stated) | – | – | 51%
